This is an account of results in ChEMBL document CHEMBL1221226 (Nat Chem Biol, 2009).

Each structure is given as a SMILES string.

The term EC50 denotes the concentration giving half of the maximal effect.

Assay [1] concerns the target Glucagon receptor (Homo sapiens, UniProt P47871). The assay is described as follows: Agonist activity at GCGR expressed in HEK293 cells assessed as stimulation of cAMP production by luciferase reporter gene assay. In kind it is functional, cell-based.
The target of assay [2] is Glucagon-like peptide 1 receptor (Homo sapiens, UniProt P43220). The assay can be described thus: Agonist activity at GLP1R expressed in HEK293 cells assessed as stimulation of cAMP production by luciferase reporter gene assay. In kind it is functional, cell-based. Background: Cyclic AMP is a second messenger, typically raised through Gs and lowered through Gi signalling.
Sequence of Glucagon-like peptide 1 receptor (P43220 whole entry): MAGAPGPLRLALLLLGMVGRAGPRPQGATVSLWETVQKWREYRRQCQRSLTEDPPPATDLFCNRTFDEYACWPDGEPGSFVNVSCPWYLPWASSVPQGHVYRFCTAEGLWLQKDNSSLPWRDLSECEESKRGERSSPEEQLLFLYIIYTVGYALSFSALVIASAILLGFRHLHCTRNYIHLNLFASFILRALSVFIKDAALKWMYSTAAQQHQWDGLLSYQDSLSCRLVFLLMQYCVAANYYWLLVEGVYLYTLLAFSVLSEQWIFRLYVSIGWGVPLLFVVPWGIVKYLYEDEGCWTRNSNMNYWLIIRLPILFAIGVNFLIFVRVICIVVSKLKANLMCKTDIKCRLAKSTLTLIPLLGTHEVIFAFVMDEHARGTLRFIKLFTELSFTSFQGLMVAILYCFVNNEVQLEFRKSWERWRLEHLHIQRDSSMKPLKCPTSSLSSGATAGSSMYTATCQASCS

Sequence of Glucagon receptor (P47871 whole entry): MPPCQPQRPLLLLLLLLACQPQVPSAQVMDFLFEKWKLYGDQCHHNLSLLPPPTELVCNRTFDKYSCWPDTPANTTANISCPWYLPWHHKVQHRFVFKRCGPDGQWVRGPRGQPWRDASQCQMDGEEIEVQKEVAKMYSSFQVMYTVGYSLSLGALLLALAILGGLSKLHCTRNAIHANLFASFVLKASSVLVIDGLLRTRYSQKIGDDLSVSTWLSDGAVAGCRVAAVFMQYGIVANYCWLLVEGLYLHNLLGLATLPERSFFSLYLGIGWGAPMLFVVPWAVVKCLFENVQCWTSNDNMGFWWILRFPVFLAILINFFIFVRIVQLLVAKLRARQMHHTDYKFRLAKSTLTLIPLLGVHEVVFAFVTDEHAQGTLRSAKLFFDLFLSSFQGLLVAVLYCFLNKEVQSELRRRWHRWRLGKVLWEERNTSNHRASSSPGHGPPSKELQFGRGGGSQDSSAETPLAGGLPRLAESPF

On to `CSCC[C@H](NC(=O)[C@H](CC(C)C)NC(=O)[C@H](Cc1c[nH]c2ccccc12)NC(=O)[C@H](CCC(N)=O)NC(=O)[C@@H](NC(=O)[C@H](Cc1ccccc1)NC(=O)[C@H](CC(=O)O)NC(=O)[C@H](CCC(N)=O)NC(=O)[C@H](C)NC(=O)[C@H](CCCNC(=N)N)NC(=O)[C@H](CCCNC(=N)N)NC(=O)[C@H](CC(=O)O)NC(=O)[C@H](CC(=O)O)NC(=O)[C@H](CC(C)C)NC(=O)[C@H](Cc1ccc(O)cc1)NC(=O)[C@H](CCCCN)NC(=O)[C@H](CO)NC(=O)[C@H](Cc1ccc(O)cc1)NC(=O)[C@H](CC(=O)O)NC(=O)[C@H](CO)NC(=O)[C@@H](NC(=O)[C@H](Cc1ccccc1)NC(=O)[C@@H](NC(=O)CNC(=O)[C@H](CCC(N)=O)NC(=O)[C@H](CO)N[C@@H](Cc1cnc[nH]1)C(=O)O)[C@@H](C)O)[C@@H](C)O)C(C)C)C(=O)N[C@@H](CC(N)=O)C(=O)N[C@H](C(N)=O)[C@@H](C)O`, for which the results for the EC50 in assay [1] and in assay [2] were 68 pM and 570 pM, respectively.

For `CSCC[C@H](NC(=O)[C@H](CC(C)C)NC(=O)[C@H](Cc1c[nH]c2ccccc12)NC(=O)[C@H](CCC(N)=O)NC(=O)[C@@H](NC(=O)[C@H](Cc1ccccc1)NC(=O)[C@H](CC(=O)O)NC(=O)[C@H](CCC(N)=O)NC(=O)[C@H](C)NC(=O)[C@H](CCCN=C(N)N)NC(=O)[C@H](CCCN=C(N)N)NC(=O)CNC(=O)[C@H](CC(=O)O)NC(=O)[C@H](CC(C)C)NC(=O)[C@H](Cc1ccc(O)cc1)NC(=O)[C@H](CCCCN)NC(=O)[C@H](CO)NC(=O)[C@H](Cc1ccc(O)cc1)NC(=O)[C@H](CC(=O)O)NC(=O)[C@H](CO)NC(=O)[C@@H](NC(=O)[C@H](Cc1ccccc1)NC(=O)[C@@H](NC(=O)CNC(=O)[C@H](CCC(N)=O)NC(=O)[C@H](CO)N[C@@H](Cc1cnc[nH]1)C(=O)O)[C@@H](C)O)[C@@H](C)O)C(C)C)C(=O)N[C@@H](CC(N)=O)C(=O)N[C@H](C(N)=O)[C@@H](C)O`, the EC50 in assay [1] is 130 pM; in assay [2] it was 580 pM.

In the case of `CSCC[C@H](NC(=O)[C@H](CC(C)C)NC(=O)[C@H](Cc1c[nH]c2ccccc12)NC(=O)[C@H](CCC(N)=O)NC(=O)[C@@H](NC(=O)[C@H](Cc1ccccc1)NC(=O)[C@H](CC(=O)O)NC(=O)[C@H](CCC(N)=O)NC(=O)[C@H](C)NC(=O)[C@H](CCCNC(=N)N)NC(=O)[C@H](CCCNC(=N)N)NC(=O)[C@@H](NC(=O)[C@H](CC(=O)O)NC(=O)[C@H](CC(C)C)NC(=O)[C@H](Cc1ccc(O)cc1)NC(=O)[C@H](CCCCN)NC(=O)[C@H](CO)NC(=O)[C@H](Cc1ccc(O)cc1)NC(=O)[C@H](CC(=O)O)NC(=O)[C@H](CO)NC(=O)[C@@H](NC(=O)[C@H](Cc1ccccc1)NC(=O)[C@@H](NC(=O)CNC(=O)[C@H](CCC(N)=O)NC(=O)[C@H](CO)N[C@@H](Cc1cnc[nH]1)C(=O)O)[C@@H](C)O)[C@@H](C)O)[C@@H](C)O)C(C)C)C(=O)N[C@@H](CC(N)=O)C(=O)N[C@H](C(N)=O)[C@@H](C)O`, the figures for the half-maximal effective concentration (EC50) in assay [1] and in assay [2] were 130 pM and 580 pM, respectively.

As for `CSCC[C@H](NC(=O)[C@H](CC(C)C)NC(=O)[C@H](Cc1c[nH]c2ccccc12)NC(=O)[C@H](CCC(N)=O)NC(=O)[C@@H](NC(=O)[C@H](Cc1ccccc1)NC(=O)[C@H](CC(=O)O)NC(=O)[C@H](CCCCN)NC(=O)[C@H](C)NC(=O)[C@H](CCCN=C(N)N)NC(=O)[C@H](CCCN=C(N)N)NC(=O)[C@H](CCC(=O)O)NC(=O)[C@H](CC(=O)O)NC(=O)[C@H](CC(C)C)NC(=O)[C@H](Cc1ccc(O)cc1)NC(=O)[C@H](CCCCN)NC(=O)[C@H](CO)NC(=O)[C@H](Cc1ccc(O)cc1)NC(=O)[C@H](CC(=O)O)NC(=O)[C@H](CO)NC(=O)[C@@H](NC(=O)[C@H](Cc1ccccc1)NC(=O)[C@@H](NC(=O)CNC(=O)[C@H](CCC(N)=O)NC(=O)[C@H](CO)N[C@@H](Cc1cnc[nH]1)C(=O)O)[C@@H](C)O)[C@@H](C)O)C(C)C)C(=O)N[C@@H](CC(N)=O)C(=O)N[C@H](C(N)=O)[C@@H](C)O`, the concentration giving a half-maximal response (EC50) in assay [1] is 77 pM; in assay [2], 71 pM.

Consider `CSCC[C@H](NC(=O)[C@H](CC(C)C)NC(=O)[C@H](Cc1c[nH]c2ccccc12)NC(=O)[C@H](CCC(N)=O)NC(=O)[C@@H](NC(=O)[C@H](Cc1ccccc1)NC(=O)[C@H](CC(=O)O)NC(=O)[C@H](CCCCN)NC(=O)[C@H](C)NC(=O)[C@H](CCCN=C(N)N)NC(=O)[C@H](CCC(N)=O)NC(=O)[C@H](CCC(=O)O)NC(=O)[C@H](CC(=O)O)NC(=O)[C@H](CC(C)C)NC(=O)[C@H](Cc1ccc(O)cc1)NC(=O)[C@H](CCCCN)NC(=O)[C@H](CO)NC(=O)[C@H](Cc1ccc(O)cc1)NC(=O)[C@H](CC(=O)O)NC(=O)[C@H](CO)NC(=O)[C@@H](NC(=O)[C@H](Cc1ccccc1)NC(=O)[C@@H](NC(=O)CNC(=O)[C@H](CCC(N)=O)NC(=O)[C@H](CO)N[C@@H](Cc1cnc[nH]1)C(=O)O)[C@@H](C)O)[C@@H](C)O)C(C)C)C(=O)N[C@@H](CC(N)=O)C(=O)N[C@H](C(N)=O)[C@@H](C)O`, for which the concentration for a half-maximal effect (EC50) in assay [1] is 48 pM; in assay [2], 75 pM.

On to `CSCC[C@H](NC(=O)[C@H](CC(C)C)NC(=O)[C@H](Cc1c[nH]c2ccccc12)NC(=O)[C@H](CCC(N)=O)NC(=O)[C@@H](NC(=O)[C@H](Cc1ccccc1)NC(=O)[C@H](CC(=O)O)NC(=O)[C@H](CCCCN)NC(=O)[C@H](C)NC(=O)[C@H](C)NC(=O)[C@H](CCCNC(=N)N)NC(=O)[C@H](CCC(=O)O)NC(=O)[C@H](CC(=O)O)NC(=O)[C@H](CC(C)C)NC(=O)[C@H](Cc1ccc(O)cc1)NC(=O)[C@H](CCCCN)NC(=O)[C@H](CO)NC(=O)[C@H](Cc1ccc(O)cc1)NC(=O)[C@H](CC(=O)O)NC(=O)[C@H](CO)NC(=O)[C@@H](NC(=O)[C@H](Cc1ccccc1)NC(=O)[C@@H](NC(=O)CNC(=O)[C@H](CCC(N)=O)NC(=O)[C@H](CO)N[C@@H](Cc1cnc[nH]1)C(=O)O)[C@@H](C)O)[C@@H](C)O)C(C)C)C(=O)N[C@@H](CC(N)=O)C(=O)N[C@H](C(N)=O)[C@@H](C)O`, for which the figures for the EC50 in assay [1] and in assay [2] were 87 pM and 28 pM, respectively.

For the compound `CSCC[C@H](NC(=O)[C@H](CC(C)C)NC(=O)[C@H](Cc1c[nH]c2ccccc12)NC(=O)[C@H](CCC(N)=O)NC(=O)[C@@H](NC(=O)[C@H](Cc1ccccc1)NC(=O)[C@H](CCC(=O)O)NC(=O)[C@H](CCCCN)NC(=O)[C@H](C)NC(=O)[C@H](CCCNC(=N)N)NC(=O)[C@H](CCCNC(=N)N)NC(=O)[C@H](CCC(=O)O)NC(=O)[C@H](CC(=O)O)NC(=O)[C@H](CC(C)C)NC(=O)[C@H](Cc1ccc(O)cc1)NC(=O)[C@H](CCCCN)NC(=O)[C@H](CO)NC(=O)[C@H](Cc1ccc(O)cc1)NC(=O)[C@H](CC(=O)O)NC(=O)[C@H](CO)NC(=O)[C@@H](NC(=O)[C@H](Cc1ccccc1)NC(=O)[C@@H](NC(=O)CNC(=O)[C@H](CCC(N)=O)NC(=O)[C@H](CO)N[C@@H](Cc1cnc[nH]1)C(=O)O)[C@@H](C)O)[C@@H](C)O)C(C)C)C(=O)N[C@@H](CC(N)=O)C(=O)N[C@H](C(N)=O)[C@@H](C)O`, the EC50 in assay [1] was found to be 68 pM; in assay [2] it was 75 pM.

Consider `CC[C@H](C)[C@H](NC(=O)[C@H](Cc1ccccc1)NC(=O)[C@H](CC(=O)O)NC(=O)[C@H](CCCCN)NC(=O)[C@H](C)NC(=O)[C@H](CCCNC(=N)N)NC(=O)[C@H](CCCNC(=N)N)NC(=O)[C@H](CCC(=O)O)NC(=O)[C@H](CC(=O)O)NC(=O)[C@H](CC(C)C)NC(=O)[C@H](Cc1ccc(O)cc1)NC(=O)[C@H](CCCCN)NC(=O)[C@H](CO)NC(=O)[C@H](Cc1ccc(O)cc1)NC(=O)[C@H](CC(=O)O)NC(=O)[C@H](CO)NC(=O)[C@@H](NC(=O)[C@H](Cc1ccccc1)NC(=O)[C@@H](NC(=O)CNC(=O)[C@H](CCC(N)=O)NC(=O)[C@H](CO)N[C@@H](Cc1cnc[nH]1)C(=O)O)[C@@H](C)O)[C@@H](C)O)C(=O)N[C@@H](CCC(N)=O)C(=O)N[C@@H](Cc1c[nH]c2ccccc12)C(=O)N[C@@H](CC(C)C)C(=O)N[C@@H](CCSC)C(=O)N[C@@H](CC(N)=O)C(=O)N[C@H](C(=O)N[C@H](C(N)=O)[C@@H](C)O)[C@@H](C)O`, for which the concentration giving a half-maximal response (EC50) in assay [1] stood at 73 pM; in assay [2], 68 pM.

For the compound `CSCC[C@H](NC(=O)[C@H](CC(C)C)NC(=O)[C@H](Cc1c[nH]c2ccccc12)NC(=O)[C@H](C)NC(=O)[C@@H](NC(=O)[C@H](Cc1ccccc1)NC(=O)[C@H](CC(=O)O)NC(=O)[C@H](CCCCN)NC(=O)[C@H](C)NC(=O)[C@H](CCCN=C(N)N)NC(=O)[C@H](CCCN=C(N)N)NC(=O)[C@H](CCC(=O)O)NC(=O)[C@H](CC(=O)O)NC(=O)[C@H](CC(C)C)NC(=O)[C@H](Cc1ccc(O)cc1)NC(=O)[C@H](CCCCN)NC(=O)[C@H](CO)NC(=O)[C@H](Cc1ccc(O)cc1)NC(=O)[C@H](CC(=O)O)NC(=O)[C@H](CO)NC(=O)[C@@H](NC(=O)[C@H](Cc1ccccc1)NC(=O)[C@@H](NC(=O)CNC(=O)[C@H](CCC(N)=O)NC(=O)[C@H](CO)N[C@@H](Cc1cnc[nH]1)C(=O)O)[C@@H](C)O)[C@@H](C)O)C(C)C)C(=O)N[C@@H](CC(N)=O)C(=O)N[C@H](C(N)=O)[C@@H](C)O`, the results for the EC50 in assay [1] and in assay [2] were 80 pM and 87 pM, respectively.

Consider `CSCC[C@H](NC(=O)[C@H](CC(C)C)NC(=O)[C@H](Cc1c[nH]c2ccccc12)NC(=O)[C@H](CCC(N)=O)NC(=O)[C@@H](NC(=O)[C@H](Cc1ccccc1)NC(=O)[C@H](CC(=O)O)NC(=O)[C@H](CCC(N)=O)NC(=O)[C@H](C)NC(=O)[C@H](CCCNC(=N)N)NC(=O)[C@H](CCCNC(=N)N)NC(=O)[C@H](CCC(=O)O)NC(=O)[C@H](CC(=O)O)NC(=O)[C@H](CC(C)C)NC(=O)[C@H](Cc1ccc(O)cc1)NC(=O)[C@H](CCCCN)NC(=O)[C@H](CO)NC(=O)[C@H](Cc1ccc(O)cc1)NC(=O)[C@H](CC(=O)O)NC(=O)[C@H](CO)NC(=O)[C@@H](NC(=O)[C@H](Cc1ccccc1)NC(=O)[C@@H](NC(=O)CNC(=O)[C@H](CCC(=O)O)NC(=O)[C@H](CO)N[C@@H](Cc1cnc[nH]1)C(=O)O)[C@@H](C)O)[C@@H](C)O)C(C)C)C(=O)N[C@@H](CC(N)=O)C(=O)N[C@H](C(N)=O)[C@@H](C)O`, for which the EC50 in assay [1] is 3700 pM; in assay [2], 110 pM.
